# Assays:
# MMP-9 = molecular target: T1, MMP-9 (Homo sapiens, UniProt P14780); test: Isothermal titration calorimetry with MMP-9; type: binding
# T1 construct: Active MMP-9 enzyme was purchased from Calbiochem; purchased Calbiochem
# Description: Isothermal titration calorimetry (ITC) was performed with a VP-ITC instrument from MicroCal, hIc. Titrations were carried out by injecting 5 μL of an inhibitor peptide solution (at concentration ranges from 0.5 mM to 2.0 mM) into the 1.4 mL stirred reaction cell. […] Titrations were conducted between 20° C. and 40° C. Typical experimental conditions for the titrations were a 10 second injection period followed by a 240 second delay between injections for a total of 40 injections. Blank titrations of inhibitor peptide into buffer were performed in order to correct for heats of dilution and mixing.
# The independent set of multiple binding sites is the most common model for binding experiment evaluations. The analytical solution for the total heat is determined by (Freire et al., 1990):
# [formula] where Q is the total heat, V is the cell volume, ΔH is the enthalpy, M is the macromolecule concentration (the binding partner in the cell), n is the binding stoichiometry, L is the ligand concentration (the binding partner in the syringe), and K is the association constant. Data were fit to this model using Origin version 5 (MicroCal, Inc.). Surface Plasmon Resonance
# The peptide was dissolved in 20 mM cacodylate (pH 6.8), 20 mM NaCl at a final concentration of 1 mM. MMP-9 was dialyzed into the same buffer at a final concentration of 20 μM. […]
# [1] = system: normal human dermal fibroblasts (NHDF); test: NHDF migration assay (48-well chemotaxis chamber); type: cell-based
# Description: Normal, human dermal fibroblasts (NHDF) were obtained from Biowhittaker, (Walkersville, Md.) and propagated in T75 flasks in FBM media (500 mL, Biowhittaker) containing insulin, hFGF-b, GA-1000, and fetal bovine serum (10 mL) for up to 12 passages. For the migration assay, NHDF were washed once with 10 mL of Hank's buffered saline solution (HBSS). Three milliliters of trypsin (0.25%) in EDTA were added to the T75 flask for no more than five minutes to remove NHDF from the flask. NHDF in trypsin solution were added to 7 mL of FBM with no supplements added. NHDF were centrifuged for 5 minutes, and the supernatant was removed. NHDF were resuspended in 10 mL of FBM for counting. NHDF were centrifuged for another 5 minutes, and the supernatant was removed. NHDF were resuspended at 1×10^6 cells per mL in FBM without supplements. It was important to use FBM media only in migration assays because the complete media contains fibroblast growth factor and serum, both of which will trigger migration of fibroblasts.
# Peptides were synthesized and purified by the Microchemical Facility at Emory University or by SigmaGenesis. All peptides were analyzed by mass spectrometry after HPLC to assess purity. Approximately 0.5–2.0 milligrams of peptide were used to make fresh stock solutions (5 mg/mL in PBS) for each migration assay. The peptide stock solutions in PBS were used to make more dilute solutions (1 mg/mL, 100 μg/mL, 10 μg/mL, 1 μg/mL, 100 ng/mL, 10 ng/mL) in FBM (without supplements) for the migration assays.
# Polyvinylpyrrolidone-free polycarbonate membranes with […] pores (Neuroprobe, Inc., Gaithersburg, Md.) were washed with 90% ethanol for 15 minutes and rinsed four times with deionized water. Membranes were then placed into a glass dish containing an aqueous solution of 5 μg/mL gelatin. The glass dish was placed in to a water bath at about 90° C. for one hour. Membranes were removed from the gelatin solution and were allowed to dry for one hour in the 37° C. incubator.
# A 48-well chemotaxis chamber (Neuroprobe, Inc., Gaithersburg, Md.) (see FIG. 20) was used for the migration assays. Twenty-eight/μL of each test solution were added to the bottom wells of the chamber in quadruplicate. A gelatin-treated membrane was placed carefully on top of the bottom wells. The gasket and top part of chamber were then placed carefully on top of the membrane. The apparatus was tightened using six thumbscrews. A solution of NHDF containing an estimated cell density (2×10^5 cells per mL) was made by adding 320 μL of the 1×10^6 cells per mL solution to 1.28 mL of FBM (no supplements). Fifty microliters of the 2×10^5 cells per mL NHDF solution were added to the top part of each well in the chamber. The chamber was placed in the incubator at 37° C./5% CO2 for three hours. The chamber was removed, the thumbscrews were removed, and the chamber was turned upside down on a paper towel. […] The membrane was carefully removed. […] The membrane was fixed with methanol and stained using the Diff-Quik Staining Solutions I and II. The nuclei of NHDF are stained purple. The membrane was mounted on a glass slide using cedarwood immersion oil and a cover slip. […] The average number of migrated NHDF in the negative control was subtracted from the experimental (peptide) data and positive control data.
# [2] = Viability assay (MTT) in EpiDerm skin model; type: cell-based; details: human, EpiDerm skin model (MatTek), relative to PBS control, average over 500 μM and 2 mM, read-out: total average viability
# Excerpt: FIG. 16 provides a bar graph showing the percent living cells, relative to a positive control, in a skin model after treatment with two concentrations of peptide. The first sample, treated with phosphate buffered saline (PBS), is the positive control used to establish the cell count representing 100% viability. The second sample is a negative control where cells were exposed to 1% Triton-X100, showing that the assay can detect cell death. […] Data shown represent the average of three tests.
# The sample containers were transferred to 6 well plates that contained fresh media. All peptides were dissolved in PBS at a final concentration of 10 mM, and 100 μL each peptide solution was pipetted onto the surface of the Epiderm sample container. Incubation was continued for 12 hours at 37° C., 5% CO2. After the incubation period, the sample containers were washed three times with PBS and the sample containers were transferred to a 24 well plate that contained 300 μL of MTT assay media per well (MTT concentration was 1 mg/mL). The colorimetric assay was allowed to develop for three hours (incubation at 37° C., 5% CO2). Sample containers were then transferred to a 24 well culture plate that contained 2 mL of isopropanol per well. Extraction of the colored precipitate occurred over a period of four hours at room temperature. Absorbance readings were taken at 570 nm and 650 nm for each sample. The percent viability of each sample relative to a PBS control was calculated as: 100×(OD570^sam−OD650^sam)/(OD570^con−OD650^con) (6) Routinely, the peptide sample was assayed in triplicate. Results The sequence of matrix metalloproteinase-2 (SEQ ID NO:14) is provided below to facilitate definition of the various domains and regions in matrix metalloproteinases.
# T1 sequence (P14780 107-707 limits assumed): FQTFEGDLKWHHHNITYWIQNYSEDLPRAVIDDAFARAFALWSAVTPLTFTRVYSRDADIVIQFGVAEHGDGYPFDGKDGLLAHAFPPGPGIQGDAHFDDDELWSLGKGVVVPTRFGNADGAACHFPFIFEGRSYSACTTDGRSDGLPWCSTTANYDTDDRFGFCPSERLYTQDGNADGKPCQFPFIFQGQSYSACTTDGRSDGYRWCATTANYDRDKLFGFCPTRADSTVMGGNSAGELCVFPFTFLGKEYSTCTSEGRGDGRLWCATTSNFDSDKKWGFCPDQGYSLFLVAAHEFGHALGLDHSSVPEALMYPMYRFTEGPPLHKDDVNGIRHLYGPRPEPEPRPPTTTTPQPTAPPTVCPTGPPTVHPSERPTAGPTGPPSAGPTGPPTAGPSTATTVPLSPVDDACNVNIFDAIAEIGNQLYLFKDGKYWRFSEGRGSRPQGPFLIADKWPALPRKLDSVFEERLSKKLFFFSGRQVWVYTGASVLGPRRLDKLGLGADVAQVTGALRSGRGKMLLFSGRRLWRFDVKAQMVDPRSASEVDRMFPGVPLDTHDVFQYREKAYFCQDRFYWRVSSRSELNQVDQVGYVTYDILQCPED
smiles,measurement,setting,value
CC(C)[C@H](NC(=O)[C@H](CC(=O)O)NC(=O)[C@@H]1CCCN1C(=O)[C@H](CC(N)=O)NC(=O)CNC(=O)[C@H](CS)NC(=O)[C@H](CCCNC(=N)N)NC(=O)[C@@H]1CCCN1)C(=O)N[C@@H](C)C(=O)N[C@@H](CC(N)=O)C(=O)N[C@@H](Cc1ccc(O)cc1)C(=O)N[C@@H](CC(N)=O)C(=O)N[C@@H](Cc1ccccc1)C(=O)N[C@@H](Cc1ccccc1)C(=O)N1CCC[C@H]1C(=O)N[C@@H](CCCNC(=N)N)C(=O)N[C@@H](CCCCN)C(=O)N1CCC[C@H]1C(=O)N[C@@H](CCCCN)C(=O)O [19-mer],Kd,MMP-9,606 nM
same,Stoichiometry,"MMP-9; ITC, 1 mM peptide into 20 μM MMP-9, 20 mM cacodylate (pH 6.8), 20 mM NaCl",0.975 ± 0.02
same,percent of migrated NHDF compared to plasma fibronectin positive control,"[1]; 100 μg/mL peptide, three hours",46%±3%
same,percent of migrated NHDF compared to plasma fibronectin positive control,"[1]; 100 μg/mL peptide, three hours, listed as 19-mer peptide",46±3%
same,percent of migrated NHDF compared to plasma fibronectin positive control,"[1]; 1000 μg/mL peptide, three hours",55%±3%
same,percent of migrated NHDF compared to plasma fibronectin positive control,"[1]; 1000 μg/mL peptide, three hours, listed as 19-mer peptide",55±3%
same,percent of migrated NHDF compared to plasma fibronectin positive control,[1]; concentrations below 100 μg/mL,about 20%
same,viability at 12 h,[2],97.6%
